The subject of the assay is Lipoxygenase. Briefly: Ex-Vivo Measurement of Lipoxygenase Inhibition in Orally Dosed Rats (LTB4 in A23187-stimulated blood). Also noted: species or system Male Sprague Dawley rats. To be noted: ex vivo rat, p.o. The method, then:
2. […] After an interval of 3 or 6 hours, the rats were anesthetized with metofane (n =4/group) and blood collected in heparinized tubes. White blood cell counts and differentials were made. One ml of blood from each animal was placed in a 5 ml plastic tube in a shaker bath at 37° C. A23187 at a final concentration of 10 μM was added to the blood and the blood vortexed and incubated for 15 min at 37° C. with gentle shaking. Incubation was terminated by vortexing sample and centrifuging immediately at 1200 xG for 15 min at 4° C. The plasma was transferred to 15 ml plastic tubes each containing 8 ml of methanol to precipitate protein followed by vortexing. The samples were stored at -70° C. overnight and the next day the samples were centrifuged at 800 xG for 15 min to pellet the precipitate. The samples were dried in a Savant SpeedVac Concentrator Model SVC 200H and reconstituted to the original volume with cold RIA or ELISA buffer. The reconstituted samples were stored at -70° C. until assayed. The assay for LTB4 was perforated according to the directions of the [^3 H]RIA kit or ELISA kit (Seragen). The total metabolite level in 1 ml of blood is calculated and reported as ng/10^6 neutrophils. Significance is determined by a one-way analysis of variance with LSD comparisons to control (p<0.05).

Setting [1] is: dose 25 (mg/kg), pretreatment 3 hr.

Structures are written as SMILES.

For `Cc1oc(-c2ccccc2)nc1CCOc1ccc(CN(O)C(N)=O)cc1` [Example 1], the “% Inhibition of LTB4” value under setting [1] came out at 79%. The same measure, in the same setting: in the case of `Cc1oc(-c2ccccc2)nc1CCOc1ccc(C(C)N(O)C(N)=O)cc1` (stereo not shown) [Example 4] it was 57%.

As to `Cc1oc(-c2ccc(C(F)(F)F)cc2)nc1CCOc1ccc(CN(O)C(N)=O)cc1` [Example 13, 1-Hydroxy-1-[4-[2-[5-methyl-2(4-trifluoromethyl-phenyl)-oxazol-4-yl]-ethoxy]benzyl]-urea], for the setting “dose 1 (mg/kg), pretreatment 6 hr”, the “% Inhibition of LTB4” value came out at 50%. Turning to `NC(=O)N(O)Cc1ccc(OCCc2noc(-c3ccccc3)n2)cc1` [Example 21, 1-hydroxy-1-[4-[2-(5-phenyl-[1,2,4]-oxadiazol-3-yl)-ethoxy]-benzyl]-urea], for the setting “dose 5 (mg/kg), pretreatment 6 hr”, the “% Inhibition of LTB4” value was 60%.

The record behind these values is US5428048A, “Aryl-N-hydroxyureas as inhibitors of 5-lipoxygenase and anto-arteriosclerotic agents” (American Home Products Corporation, priority 1993, dated 1995).
